Results reported in patent EP2623117A1, “Immunogenic nanomedicine composition and preparation and uses thereof” (Genetic Immunity Kft., priority 2009, dated 2010).

Legend:
293T human cells = assay: In vitro biological activity assay: transfection of 293T cells, HIV-1 p24 antigen ELISA of supernatant; format: cell-based; conditions: N/P ratio of 3
Description: The in vitro biological activity test of the NanoComp is performed by transfection of 293T human cells. 50,000 cells are plated in 96 well plate 19 hours before transfection, using DMEM culture medium (DMEM, 1% FBS, 1% L-glutamine, 1% Penicillin-Streptomycin). 0.5µg pDNA/NanoComp is added to each well followed by 21 hours incubation at 37°C in 5% CO2 air condition. During the incubation period, the HIV-specific protein antigens encoded by the pDNA are expressed and secreted into the culture medium. After 21 hours, the supernatant of the cells are collected, and HIV-1 p24 antigen ELISA is performed to quantify p24 protein produced by the pDNA.

[1] = Side reaction of formulation solvent with PEIm (UV spectra after storage); format: physicochemical; conditions: room temperature, 2 month
Description: • a) NanoComp formulations were prepared according to Example 1, using the same PEIm and pDNA at N/P ratio of 3, and different solvents: sterile water, physiological NaCl (0.9%), D(+)-Mannitol (10 mg/ml), Sorbitol (10 mg/ml), D(+)-Glucose (10 mg/ml), Mannose (10 mg/ml), Sucrose (10 mg/ml), Triethanolamine buffer (TEA) (pH 7.5), D(+)-Mannitol (10 mg/ml) in triethanolamine (TEA) buffer (pH 7.5), Sorbitol (10 mg/ml) in triethanolamine buffer (pH 7.5) and D(+)-Mannitol (10 mg/ml) and Glycerol (10 mg/ml) in triethanolamine buffer (pH 7.5). The biological activity is given procentual related to the biological activity of the formulation in sterile water. Results are shown in Fig. 7A. • b) PEIm solution, mixture of PEIm with Glucose (10%) and Mannitol (10%) respectively, NanoComp formulations with Glucose (10%) and Mannitol (10%) were prepared according to Example 1, the missing component in all mixtures were replaced with water, to ensure the same concentration of the components. The prepared solutions were stored at room temperature (approx. 25°C) for 2 month. UV spectra were recorded without dilution. […] The particle size of the formed complexes was measured using ZetaPALS, Brookehaven instrument freshly and after 6 days storage at room temperature.

OC[C@@H](O)[C@@H](O)[C@H](O)[C@H](O)CO [mannitol, D(+)-Mannitol]
effect of solvent on the biological activity of the NanoComp compared to sterile water (293T human cells): same improving effect on the biological activity
side reaction of solvent with PEIm over time [1]: without side reactions with PEIm
